This test has as its target T1, mGlyT-1b (Mus musculus, UniProt P28571).
T1 construct: host or cells: Flp-in-CHO
T1 sequence (P28571 1-651 isoform P28571-2): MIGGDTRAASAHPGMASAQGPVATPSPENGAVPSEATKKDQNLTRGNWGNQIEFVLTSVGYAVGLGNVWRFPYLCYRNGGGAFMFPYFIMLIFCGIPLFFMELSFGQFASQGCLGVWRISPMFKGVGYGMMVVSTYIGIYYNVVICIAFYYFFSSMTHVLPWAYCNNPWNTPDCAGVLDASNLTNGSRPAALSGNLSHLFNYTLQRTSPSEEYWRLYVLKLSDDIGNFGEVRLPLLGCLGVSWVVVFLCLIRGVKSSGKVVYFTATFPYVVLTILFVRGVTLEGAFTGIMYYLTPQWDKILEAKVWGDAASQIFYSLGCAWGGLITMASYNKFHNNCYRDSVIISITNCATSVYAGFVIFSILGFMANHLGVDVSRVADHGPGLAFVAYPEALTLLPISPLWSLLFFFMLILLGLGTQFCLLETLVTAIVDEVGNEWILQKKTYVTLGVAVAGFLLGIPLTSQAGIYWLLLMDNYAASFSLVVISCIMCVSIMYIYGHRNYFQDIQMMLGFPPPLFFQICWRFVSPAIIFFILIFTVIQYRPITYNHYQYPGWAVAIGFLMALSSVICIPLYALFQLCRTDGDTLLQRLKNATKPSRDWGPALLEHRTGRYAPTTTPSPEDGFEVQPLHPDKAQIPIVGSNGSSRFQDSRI
In words: Glycine Uptake Inhibition Assay (mGlyT-1b). The class given is cell-based. The procedure: DMEM complete medium: Nutrient mixture F-12 (Gibco Life-technologies), fetal bovine serum (FBS) 5%, (Gibco life technologies), Penicillin/Streptomycin 1% (Gibco life technologies), Hygromycin 0.6 mg/ml (Gibco life technologies), Glutamine 1 mM Gibco life technologies)
Uptake buffer (UB): 150 mM NaCl, 10 mM Hepes-Tris, pH 7.4, 1 mM CaCl2, 2.5 mM KCl, 2.5 mM MgSO4, 10 mM (+) D-glucose.
Flp-in™-CHO (Invitrogen Cat n° R758-07) cells stably transfected with mGlyT1b cDNA.
Glycine Uptake Inhibition Assay (mGlyT-1b)
On day 1 mammalian cells, (Flp-in™-CHO), transfected with mGlyT-1b cDNA, were plated at the density of 40,000 cells/well in complete F-12 medium, without hygromycin in 96-well culture plates. On day 2, the medium was aspirated and the cells were washed twice with uptake buffer (UB). The cells were then incubated for 20 min at 22° C. with either (i) no potential competitor, (ii) 10 mM non-radioactive glycine, (iii) a concentration of a potential inhibitor. A range of concentrations of the potential inhibitor was used to generate data for calculating the concentration of inhibitor resulting in 50% of the effect (e.g. IC50, the concentration of the competitor inhibiting glycine uptake of 50%). A solution was then immediately added containing [^3H]-glycine 60 nM (11-16 Ci/mmol) and 25 μM non-radioactive glycine. The plates were incubated with gentle shaking and the reaction was stopped by aspiration of the mixture and washing (three times) with ice-cold UB. The cells were lysed with scintillation liquid, shaken 3 hours and the radioactivity in the cells was counted using a scintillation counter.
For the compound `O=C(CN(Cc1ccccc1Cl)C(=O)c1cc2ccccc2s1)Nc1cccc(C(F)(F)F)c1` [Example 51, Benzo[b]thiophene-2-carboxylic acid (2-chloro-benzyl)-[(3-trifluoromethyl-phenylcarbamoyl)-methyl]-amide], the IC50 was 60 nM.

The compound `COc1ccc(C(=O)N(CC(=O)Nc2ccc(Cl)c(Cl)c2)c2cccc(Cl)c2)cc1` [Example 117, N-(3-Chloro-phenyl)-N-[(3,4-dichloro-phenylcarbamoyl)-methyl]-4-methoxy-benzamide] displayed an IC50 of 210 nM.

Consider `O=C(CN(C(=O)c1ccc(OC(F)(F)F)cc1)c1ccccc1)Nc1ccc(Cl)c(Cl)c1` [Example 114, N-[(3,4-Dichloro-phenylcarbamoyl)-methyl]-N-phenyl-4-trifluoromethoxy-benzamide], for which the IC50 was found to be 91 nM.

`O=C(CN(Cc1ccccc1Cl)C(=O)c1ccc(Cl)cc1)Nc1cccc(F)c1` [Example 59, 4-Chloro-N-(2-chloro-benzyl)-N-[(3-fluoro-phenylcarbamoyl)-methyl]-benzamide] showed a half-maximal inhibitory concentration (IC50) of 166 nM.

`Cc1ccccc1CN(CC(=O)Nc1cccc(Cl)c1)C(=O)c1ccc(Cl)cc1` [Example 104, 4-Chloro-N-[(3-chloro-phenylcarbamoyl)-methyl]-N-(2-methyl-benzyl)-benzamide]: inhibition was half-maximal at 209 nM (IC50).

In turn, `O=C(CN(Cc1ccccc1Cl)C(=O)c1ccc(Cl)cc1)Nc1cccc(Cl)c1` [Example 106, 4-Chloro-N-(2-chloro-benzyl)-N-[(3-chloro-phenylcarbamoyl)-methyl]-benzamide] gave an IC50 of 25 nM.

The compound `COc1ccc(C(=O)N(CC(=O)Nc2ccc(F)c(Cl)c2)c2ccccc2)cc1` [Example 108, N-[(3-Chloro-4-fluoro-phenylcarbamoyl)-methyl]-4-methoxy-N-phenyl-benzamide] registered an IC50 of 182 nM.

On to `O=C(CN(Cc1ccccc1)C(=O)c1ccc(F)cc1)Nc1cccc(Cl)c1` [Example 15, N-Benzyl-N-[(3-chloro-phenylcarbamoyl)-methyl]-4-fluoro-benzamide], for which it took 312 nM to reach half-maximal inhibition (IC50).

Regarding `O=C(CN(Cc1ccccc1Cl)C(=O)c1ccc(F)cc1)Nc1cccc(C(F)(F)F)c1` [Example 55, N-(2-Chloro-benzyl)-4-fluoro-N-[(3-trifluoromethyl-phenylcarbamoyl)-methyl]-benzamide], the midpoint of inhibition, the IC50, lay at 97 nM.

`O=C(CN(Cc1c(F)cccc1F)C(=O)c1ccc(Cl)cc1)Nc1cccc(Cl)c1` [Example 1, 4-Chloro-N-[(3-chloro-phenylcarbamoyl)-methyl]-N-(2,6-difluoro-benzyl)-benzamide] registered an IC50 of 52 nM.

Usually IC50 stands for the concentration that inhibits the measured activity by half.
